Reference: patent US11266604B2 (ALAYA (SHANGHAI) BIOSCIENCE CO., LTD, priority 2015, dated 2022)
Entries after “also recorded” stand apart in the source; their conditions may differ.

What was measured:
H. pylori = test: Antibacterial activity of nanoparticles versus free fatty acid in aqueous system (PBS); assay type: cell-based, Helicobacter pylori; conditions: same concentration (0.3% w/v)
Source text: (§1) The present inventors further tested the antibacterial activity of the nanoparticles of the present invention and free fatty acids in an aqueous system.

Propionibacterium acnes = test: as above; assay type: cell-based
Source text: as §1

Structure (SMILES)	bactericidal activity against H. pylori in aqueous system (H. pylori)	bactericidal effect on Propionibacterium acnes in aqueous system (Propionibacterium acnes)
CCCC/C=C\CCCCCCCC(=O)O [free myristoleic acid, myristoleic acid]	does not exhibit activities against H. pylori; also recorded: did not show bactericidal activity	
CCCCCCCCCCCC(=O)O [free lauric acid, lauric acid]		almost no bactericidal effect
